Test results: patent US12539281B2 (priority 2021, dated 2026)
Where two headings read alike, the source gives them in different places.

How the values were obtained:
[1] = tested on: blood-brain barrier (BBB); assay: IA ethyl alcohol, NEO100 or mannitol mediated BBB disruption, extravasated EB dye in perfused mouse brain (Experiments 1-3); type: in vivo, mice; conditions: for EB dye / EB dye penetration level / Patchy, or punctate pattern of EB dye: perfused mouse brain
Protocol: The method of IA and IC injection is similar to the IV push in the clinic, which comprises essentially the steps of: • pushing the injection composition at a particular infusion flow rate immediately after the placement of the IA catheter into the internal carotid artery (ICA) or the insertion of the injection needle into the left ventricle via the ultrasound-guided intracardiac (IC) puncture at room temperature.
When performing the IA and IC injections, the infusion flow rate is about 5-7 μl/second (0.3-0.45 ml/min), the infusion volume is about […] of the body weight (at 1 μl/g, volume/weight ratio), and USP purified water or sodium chloride is used to reconstitute varied EA solutions at room temperature.
Intracardiac injection of NEO100 or EA can be carried out through the procedure of ultrasound-guided intracardiac (IC) injection. […] The mouse is anesthetized in an induction chamber using 2-3% isoflurane in 100% oxygen at a rate of 0.2-0.5 L/min. Fur over the thorax area is removed and the animal is placed in a stereotactic frame in supine position, securing the upper and lower limbs to avoid body movement. The ultrasound transducer is placed above the chest of the animal, and the injection syringe is anchored to a platform to avoid erratic needle movements. An electrocardiogram monitor is used to monitor heart function during the intracardiac injection.
EB dye is used as the non-BBB permeable substance.
Photographs of the perfused brain tissues of the experimental mice after treatment are taken.
Extravasated EB dye is used as the non-BBB permeable substance.

[2] = tested on: blood-brain barrier (BBB); assay: Comparison of intracardiac EA and NEO100 mediated BBB opening, EB dye (Comparative Experiment 19, Experiment 20); type: in vivo, mice
Protocol: Intracardiac injected various concentrations of EA (at 25%, 20%, 3%, 0.3%, and 0.1%, 0.03%, 0.01%) and NEO100 (at 25%, 20%, 3%, 0.3%, and 0.1%, 0.03%, 0.01%) are used on mice to test their effects on BBB disruption and evaluated by the observation of extravasated EB dye in the brain tissues. […] Photographs of the perfused brain tissues from the experimental mice treated with […] EA and NEO100 are taken for observation and comparison.
The same procedure as experiment 19 was performed with IA 0.3% NEO100 with 2% EB dye solution.

[3] = tested on: blood-brain barrier (BBB); conditions: IA NEO100, IA mannitol; stated for comparison, no test described; cited from earlier work
[4] = Comparison of the toxicity of IA NEO100 and IA EA (Experiment 21)
Protocol: The safety profile of IA 0.3% NEO100 vs. IA 0.3% EA are compared. […] There are 15 experimental mice in each testing group. The potential adverse effects are evaluated.

[5] = cited from earlier work
[6] = tested on: blood-brain barrier (BBB)
[7] = IA injection 0.3%, 15 mice per group
[8] = IA injection 0.3%, 15 mice per group, number of mice

C=C(C)[C@@H]1CC=C(CO)CC1 [NEO100, perillyl alcohol]
EB dye ([1]; IA agent at 0.1%): Observed | EB dye penetration level ([1]; IA agent at 0.1%): Few Patchy | Patchy, or punctate pattern of EB dye ([1]; IA agent at 0.1%): Observed | EB dye ([1]; IA agent at 0.3%): Observed | EB dye penetration level ([1]; IA agent at 0.3%): Widely | Patchy, or punctate pattern of EB dye ([1]; IA agent at 0.3%): Observed | EB dye ([1]; IA agent at 3%): Observed | EB dye penetration level ([1]; IA agent at 3%): Widely | Patchy, or punctate pattern of EB dye ([1]; IA agent at 3%): Observed | EB dye ([1]; IA agent at 5%): Observed | EB dye penetration level ([1]; IA agent at 5%): Widely | Patchy, or punctate pattern of EB dye ([1]; IA agent at 5%): Observed | brain finding in sudden-death mouse (inferior view) ([2]; IA 0.3% NEO100 with 2% EB dye, mouse died right after treatment): bleeding and a blood clot | pattern of breached BBB, coronal section ([2]; IA 25% NEO, mice): random, haphazard, sporadic, patchy, or punctate pattern | dose response of BBB disruption ([2]; intracardiac 25%, 20%, 3%, 0.3%, 0.1%, 0.03%, 0.01%, mice): dose-dependent manner | interval window of the breached BBB [3]: 4 h | Mortality [4, 7]: 53.33% | tested animals that experienced adverse effects [4, 7]: almost all | Immediate Sudden Death [4, 8]: 3 | Intermediate-lasting epilepsy post-injection leading to death [4, 8]: 2 | Long-lasting epilepsy post-injection leading death [4, 8]: 3 | Moderate-lasting epilepsy post-injection and survival to fully recovery [4, 8]: 3 | Transient, mild, or occasional epilepsy post-injection and survival to fully recovery [4, 8]: 4 | overall mortality rate ([4]; repeated comparative experiments of IA EA and IA NEO100): around 60% | solubility in water [5]: water-insoluble

OC[C@@H](O)[C@@H](O)[C@H](O)[C@H](O)CO [mannitol]
EB dye penetration level ([1]; IA agent at 0.1%): Not | EB dye penetration level ([1]; IA agent at 0.3%): Not | EB dye penetration level ([1]; IA agent at 3%): Not | EB dye penetration level ([1]; IA agent at 5%): Not | brain damage ([1]; IA mannitol at 0.1%, 0.3%, 3%, and 5%, mice): Some brain damage is observed | disrupted BBB after IC mannitol ([1]; IC application of varied volumes of high concentrations of mannitol, mice): No disrupted BBB is observed | EB (induced BBB disruption) ([6]; group A: 1800 μl 25% mannitol infused in 30 seconds): observed | EB (induced BBB disruption) ([6]; group C: 300 μl 25% mannitol at regular speed in 1 minute, warmed to 37° C.): not observed | interval window of the breached BBB [3]: 6 to 7 h
